From patent publication US8562949B2, “Radiolabeled dihydrotetrabenazine derivatives and their use as imaging agents” (The Trustees of the University of Pennsylvania, priority 2006, dated 2013)

Assay: Biodistribution in normal rats
Format: in vivo
Settings: IV
Procedure: While under isoflurane anesthesia, 0.15 mL of a 0.1% bovine serum albumin solution containing [^18F]tracers (10-20 μCi) were injected directly into the tail vein of ICR mice (22-25 g, male) The mice (n=3 for each time point) were sacrificed by cervical dislocation at indicated time points post injection. The organs of interest were removed and weighed, and the radioactivity was counted with an automatic gamma counter. The percentage dose per organ was calculated by a comparison of the tissue counts to suitably diluted aliquots of the injected material. Total activities of blood were calculated under the assumption that they were 7% of the total body weight. The % dose/g of samples was calculated by comparing the sample counts with the count of the diluted initial dose.
The ability of (+)-6b to target the pancreas was shown in normal rats. Using the methods described above under Example 6, the biodistribution of (+)-6b after IV injection in twelve normal rats was measured. For the organs studied, the pancreas had the highest % dose/gram within 30 minutes after injection. Also shown are data indicating distribution in the striatum, which is another area rich in VMAT-2 receptors.

Question: What does the source list for COc1cc2c(cc1OCCC[18F])CCN1C[C@@H](CC(C)C)[C@H](O)C[C@H]21 [[^18F]-(+)-6b]?
Answer: Biodistribution Blood (2 min): 0.26 ± 0.03 % dose/g; Biodistribution Brain (2 min): 0.71 ± 0.05 % dose/g; Biodistribution Cerebellum (2 min): 0.63 ± 0.03 % dose/g; Biodistribution Cortex (2 min): 0.65 ± 0.02 % dose/g; Biodistribution Heart (2 min): 0.71 ± 0.07 % dose/g; Biodistribution Hippocampus (2 min): 0.68 ± 0.07 % dose/g; Biodistribution Kidney (2 min): 2.10 ± 0.17 % dose/g; Biodistribution Liver (2 min): 3.53 ± 0.56 % dose/g; Biodistribution Lung (2 min): 0.94 ± 0.04 % dose/g; Biodistribution Muscle (2 min): 0.14 ± 0.03 % dose/g; Biodistribution Pancreas (2 min): 2.51 ± 0.22 % dose/g; Biodistribution Skin (2 min): 0.23 ± 0.05 % dose/g; Biodistribution Spleen (2 min): 1.46 ± 0.15 % dose/g; Biodistribution Striatum (2 min): 1.52 ± 0.20 % dose/g; Biodistribution Blood (30 min): 0.23 ± 0.06 % dose/g; Biodistribution Brain (30 min): 0.62 ± 0.08 % dose/g; Biodistribution Cerebellum (30 min): 0.40 ± 0.04 % dose/g; Biodistribution Cortex (30 min): 0.44 ± 0.06 % dose/g; Biodistribution Heart (30 min): 0.41 ± 0.03 % dose/g; Biodistribution Hippocampus (30 min): 0.61 ± 0.12 % dose/g; Biodistribution Kidney (30 min): 1.06 ± 0.06 % dose/g; Biodistribution Liver (30 min): 2.82 ± 0.24 % dose/g; Biodistribution Lung (30 min): 0.69 ± 0.03 % dose/g; Biodistribution Muscle (30 min): 0.17 ± 0.02 % dose/g; Biodistribution Pancreas (30 min): 5.50 ± 0.97 % dose/g; Biodistribution Skin (30 min): 0.28 ± 0.01 % dose/g; Biodistribution Spleen (30 min): 1.03 ± 0.18 % dose/g; Biodistribution Striatum (30 min): 2.25 ± 0.48 % dose/g; Biodistribution Blood (60 min): 0.18 ± 0.02 % dose/g; Biodistribution Brain (60 min): 0.42 ± 0.04 % dose/g; Biodistribution Cerebellum (60 min): 0.28 ± 0.04 % dose/g; Biodistribution Cortex (60 min): 0.27 ± 0.07 % dose/g; Biodistribution Heart (60 min): 0.30 ± 0.10 % dose/g; Biodistribution Hippocampus (60 min): 0.36 ± 0.08 % dose/g; Biodistribution Kidney (60 min): 0.84 ± 0.09 % dose/g; Biodistribution Liver (60 min): 2.47 ± 0.30 % dose/g; Biodistribution Lung (60 min): 0.54 ± 0.14 % dose/g; Biodistribution Muscle (60 min): 0.13 ± 0.01 % dose/g; Biodistribution Pancreas (60 min): 4.98 ± 0.24 % dose/g; Biodistribution Skin (60 min): 0.23 ± 0.04 % dose/g; Biodistribution Spleen (60 min): 0.83 ± 0.18 % dose/g; Biodistribution Striatum (60 min): 1.85 ± 0.26 % dose/g; Biodistribution Blood (120 min): 0.12 ± 0.03 % dose/g; Biodistribution Brain (120 min): 0.35 ± 0.02 % dose/g; Biodistribution Cerebellum (120 min): 0.20 ± 0.01 % dose/g; Biodistribution Cortex (120 min): 0.20 ± 0.06 % dose/g; Biodistribution Heart (120 min): 0.22 ± 0.01 % dose/g; Biodistribution Hippocampus (120 min): 0.23 ± 0.03 % dose/g; Biodistribution Kidney (120 min): 0.55 ± 0.06 % dose/g; Biodistribution Liver (120 min): 1.47 ± 0.13 % dose/g; Biodistribution Lung (120 min): 0.35 ± 0.03 % dose/g; Biodistribution Muscle (120 min): 0.10 ± 0.01 % dose/g; Biodistribution Pancreas (120 min): 2.76 ± 0.61 % dose/g; Biodistribution Skin (120 min): 0.16 ± 0.02 % dose/g; Biodistribution Spleen (120 min): 0.48 ± 0.04 % dose/g; Biodistribution Striatum (120 min): 1.42 ± 0.54 % dose/g
